Like-named read-outs stand apart in the source and are kept apart here.
Legend:
NCI-H1417 SCLC xenograft [1] = experiment: Efficacy in NCI-H1417 SCLC xenograft model; format: in vivo, female athymic nude mice
[2] = test system: LU2514 SCLC patient derived xenograft; experiment: Efficacy in LU2514 HuPrime SCLC PDX model; format: in vivo, female BALB/c nude mice
Protocol: Tumor growth inhibition analysis was performed on Day 28 post treatment, the last day of dosing.

[3] = test system: LU1480 SCLC patient derived xenograft; experiment: Efficacy in LU1480 HuPrime SCLC PDX model; format: in vivo, female BALB/c nude mice
[4] = test system: LXFS 573 SCLC patient derived xenograft; experiment: Efficacy in LXFS 573 SCLC PDX model; format: in vivo, female NMRI-Foxn1nu mice; conditions: 5 to 10 mg/kg oral
[5] = test system: LU2527 lung NEC patient-derived xenograft; format: in vivo; conditions: 1.5 and 5 mg/kg orally QD
[6] = test system: GA0087 gastric NEC patient-derived xenograft; format: in vivo; conditions: 1.5 and 5 mg/kg orally QD
[7] = test system: gene expression in MKL-1 cells; experiment: Modulation of gene expression by RNA-seq, MKL-1 cells; format: cell-based, human; conditions: 10 and 100 nM, 3 days
Protocol: (§1) Libraries were sequenced on an Illumina NextSeq® 500 System (Illumina, San Diego, Calif.) using 75 base paired-end RNA sequencing. Sequenced reads were mapped to the hg19 human genome build and differential expression was determined by analysis of variance across all replicates relative to the vehicle control.
(§2) Sequenced reads were mapped to the hg19 human genome build using the Spliced Transcripts Alignment to a Reference (STAR) software tool (©Alexander Dobin, 2009-2016) and transcript counts were normalized using the Empirical Analysis of Digital Gene Expression Data in R (edgeR) and Differential gene expression analysis based on the negative binomial distribution (DESeq2) software tools ((Bioconductor, 2003-2017). Differential expression was determined by analysis of variance across all replicates relative to the vehicle control.

[8] = test system: gene expression in MS-1 cells; experiment: Modulation of gene expression by RNA-seq, MS-1 cells; format: cell-based, human; conditions: 10 and 100 nM, 3 days
Protocol: as §1, §2

[9] = test system: ST18 and FREM2 gene expression in MKL-1 tumors; experiment: In vivo xenograft dose-response of PD biomarker genes, MKL-1 tumors; parameters: species or system female NSG mice; conditions: 1, 2.5, or 5 mg/kg PO BID x4.5, tumors 4 hours after last dose
Excerpt: (§3) Female NSG mice bearing palpable hMCC MKL-1 and MS-1 tumors were randomized into four groups of three mice each. […] The fourth group was orally administered vehicle as a control on the BID schedule. Four hours after the last dosing, tumors were collected into RNAlater and stored frozen.
(§4) Total RNA was eluted in RNase-free water and analyzed by qRT-PCR.

[10] = test system: ST18 and FREM2 gene expression in MS-1 tumors; experiment: In vivo xenograft dose-response of PD biomarker genes, MS-1 tumors; parameters: species or system female NSG mice; conditions: 1, 2.5, or 5 mg/kg PO BID x4.5, tumors 4 hours after last dose
Excerpt: as §3, §4

LNCaP cells = experiment: LNCaP cell proliferation with DHT and irradiation; format: cell-based, human; conditions: 100 nM Compound A with 10 nM DHT and 2Gy irradiation, 220 hours
Protocol: LNCaP cells are androgen-sensitive human prostate adenocarcinoma cells. […] The proliferation of the LNCap cells was monitored for 220 hours.

[11] = Hemodynamic and ECG parameters in anesthetized guinea pigs; format: in vivo, male Dunkin Hartley guinea pigs
Excerpt: Animals were monitored throughout the experiment.

[12] = 4-week oral gavage pivotal toxicity study with 4-week recovery in dogs (incl. ECG, toxicokinetics); format: in vivo, Beagle dogs
Protocol: The QTc interval was calculated using the Fridericia method.

[13] = Pharmacokinetics after IV and oral dose, rats; format: in vivo, Sprague Dawley rats; conditions: IV dosing, rats (greater than liver blood flow)
[14] = target: MDR1 (human P-gp)-MDCK cells (Homo sapiens (Human), UniProt P08183); experiment: Permeability in MDR1-MDCK cells; format: in vitro ADME; conditions: B→A direction
[15] = Metabolism in cryopreserved primary hepatocytes; format: in vitro ADME, mouse, rat, dog, monkey, human
[16] = test system: recombinant human CYP enzymes; experiment: CYP reaction phenotyping with recombinant human CYP enzymes; format: in vitro ADME
Excerpt: The role of non-CYP enzymes in the metabolism of Compound A is yet to be ascertained.

[17] = Excretion in bile duct cannulated rats; format: in vivo; conditions: IV dosing, 24-hour period
CYP2C9 = CYP2C9 (Homo sapiens (Human), UniProt P11712); experiment: CYP inhibition in pooled human liver microsomes, CYP2C9; format: in vitro ADME; conditions: up to 50 μM
CYP2D6 = CYP2D6 (Homo sapiens (Human), UniProt P10635); experiment: CYP inhibition in pooled human liver microsomes, CYP2D6; format: in vitro ADME; conditions: up to 50 μM
[18] = Predicted human pharmacokinetics (allometric scaling)
[19] = Exploratory toxicity study in mice; format: in vivo, CD-1 mice; conditions: for reduction in neutrophil counts versus concurrent controls: 60 mg/kg/dose QOD
Excerpt: Additional animals were included for TK evaluation.

[20] = test system: LXFS 573 SCLC patient-derived xenograft; conditions: for SS (number of study survivors): Day 133, N=8
[21] = Exploratory toxicity study in dogs; conditions: 0.5 mg/kg/day 5 days on/2 days off, Day 12
[22] = 4-week toxicity study with 4-week recovery in mice (incl. toxicokinetics); conditions: QDx5/week schedule
NCI-H1417 SCLC xenograft [23] = conditions: etoposide monotherapy 24 mg/kg SC QDx3

Chain of MDR1 (human P-gp)-MDCK cells (P08183 whole entry): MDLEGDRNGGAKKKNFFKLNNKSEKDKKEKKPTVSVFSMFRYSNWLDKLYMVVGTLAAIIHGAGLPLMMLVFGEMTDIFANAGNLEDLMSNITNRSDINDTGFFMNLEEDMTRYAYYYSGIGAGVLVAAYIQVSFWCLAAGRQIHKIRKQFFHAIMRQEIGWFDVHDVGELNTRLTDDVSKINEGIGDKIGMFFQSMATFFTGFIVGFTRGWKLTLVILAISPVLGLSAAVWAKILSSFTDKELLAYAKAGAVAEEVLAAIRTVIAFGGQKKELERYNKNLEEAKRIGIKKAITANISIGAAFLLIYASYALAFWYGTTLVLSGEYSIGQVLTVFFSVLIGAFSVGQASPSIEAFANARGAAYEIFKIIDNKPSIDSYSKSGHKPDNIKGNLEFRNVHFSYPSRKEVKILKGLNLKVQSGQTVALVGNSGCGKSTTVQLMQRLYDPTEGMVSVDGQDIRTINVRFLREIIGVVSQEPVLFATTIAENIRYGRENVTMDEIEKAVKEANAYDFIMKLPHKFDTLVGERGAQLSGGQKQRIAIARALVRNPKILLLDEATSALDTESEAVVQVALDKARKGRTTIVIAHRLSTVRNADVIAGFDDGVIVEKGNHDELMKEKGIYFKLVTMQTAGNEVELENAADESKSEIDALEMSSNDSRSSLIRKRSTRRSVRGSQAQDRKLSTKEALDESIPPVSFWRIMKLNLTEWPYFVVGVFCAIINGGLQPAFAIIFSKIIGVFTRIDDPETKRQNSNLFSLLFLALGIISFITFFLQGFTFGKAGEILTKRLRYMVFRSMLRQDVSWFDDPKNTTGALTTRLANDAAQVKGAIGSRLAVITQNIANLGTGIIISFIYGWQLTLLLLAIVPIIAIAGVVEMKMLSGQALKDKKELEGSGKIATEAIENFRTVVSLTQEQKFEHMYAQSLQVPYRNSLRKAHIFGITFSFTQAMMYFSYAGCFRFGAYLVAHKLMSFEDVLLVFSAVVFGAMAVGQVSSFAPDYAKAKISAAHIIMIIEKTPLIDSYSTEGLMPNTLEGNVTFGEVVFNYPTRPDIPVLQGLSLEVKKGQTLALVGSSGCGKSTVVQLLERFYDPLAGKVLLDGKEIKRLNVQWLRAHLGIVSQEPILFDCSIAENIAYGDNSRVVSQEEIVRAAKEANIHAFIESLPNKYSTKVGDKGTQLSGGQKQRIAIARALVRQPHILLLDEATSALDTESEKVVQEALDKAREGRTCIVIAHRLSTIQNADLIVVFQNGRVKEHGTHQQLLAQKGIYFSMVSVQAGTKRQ
Chain of CYP2D6 (P10635 whole entry): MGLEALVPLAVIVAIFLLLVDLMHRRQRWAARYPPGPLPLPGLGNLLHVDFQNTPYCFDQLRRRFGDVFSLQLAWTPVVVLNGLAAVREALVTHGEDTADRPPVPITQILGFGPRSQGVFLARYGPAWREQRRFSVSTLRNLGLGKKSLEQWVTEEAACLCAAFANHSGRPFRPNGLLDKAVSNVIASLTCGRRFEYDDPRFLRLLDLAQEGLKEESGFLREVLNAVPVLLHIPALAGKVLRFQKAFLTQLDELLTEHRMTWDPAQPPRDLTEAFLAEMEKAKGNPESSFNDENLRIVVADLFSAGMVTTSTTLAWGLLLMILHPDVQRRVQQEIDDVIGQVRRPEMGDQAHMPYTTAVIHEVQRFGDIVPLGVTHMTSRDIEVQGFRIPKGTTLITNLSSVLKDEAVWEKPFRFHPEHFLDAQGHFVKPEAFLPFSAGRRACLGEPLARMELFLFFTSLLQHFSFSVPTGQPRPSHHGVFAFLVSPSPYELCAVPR
Chain of CYP2C9 (P11712 whole entry): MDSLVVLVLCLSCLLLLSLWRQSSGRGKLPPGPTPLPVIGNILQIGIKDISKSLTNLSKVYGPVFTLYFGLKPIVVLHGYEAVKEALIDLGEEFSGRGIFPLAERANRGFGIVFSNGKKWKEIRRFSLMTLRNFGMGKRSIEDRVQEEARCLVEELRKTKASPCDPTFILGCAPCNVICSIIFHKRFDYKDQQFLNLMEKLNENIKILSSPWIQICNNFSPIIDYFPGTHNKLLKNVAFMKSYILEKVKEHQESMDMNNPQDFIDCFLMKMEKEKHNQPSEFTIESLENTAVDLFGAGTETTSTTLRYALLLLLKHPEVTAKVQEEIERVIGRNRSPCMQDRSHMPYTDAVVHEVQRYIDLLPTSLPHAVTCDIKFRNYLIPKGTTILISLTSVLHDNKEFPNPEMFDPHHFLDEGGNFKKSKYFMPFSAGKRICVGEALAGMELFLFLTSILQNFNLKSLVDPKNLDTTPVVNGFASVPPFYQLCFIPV

COc1ccc(-c2c(-c3ccc(C#N)c(F)c3)nc(N3CCC(N)CC3)n(C)c2=O)cc1F [Compound A, 4-[2-(4-amino-piperidin-1-yl)-5-(3-fluoro-4-methoxy-phenyl)-1-methyl-6-oxo-1,6-dihydro-pyrimidin-4-yl]-2-fluoro-benzonitrile]
Median Tumor Volumes (mm^3) Day 0 (NCI-H1417 SCLC xenograft [1]; 2.5 mg base/kg PO QDx65): 109.2 mm^3
mean body weight gain by end of study (NCI-H1417 SCLC xenograft [1]; 2.5 mg base/kg PO QDx65): 1%
Median Tumor Volumes (mm^3) Day 0 (NCI-H1417 SCLC xenograft [1]; 5 mg base/kg PO QDx65): 108.2 mm^3
mean body weight gain by end of study (NCI-H1417 SCLC xenograft [1]; 5 mg base/kg PO QDx65): 7.5%
Median Tumor Volumes (mm^3) Day 1 ([2]; 5 mg base/kg PO QDx28): 173.2 mm^3
Median Tumor Volumes (mm^3) Day 1 ([2]; 10 mg base/kg PO QDx28): 173.7 mm^3
mean body weight losses ([2]; both studies with LU2514 model): < 10%
Median Tumor Volumes (mm^3) Day 1 ([3]; 5 mg base/kg PO QDx21): 89.5 mm^3
Median Tumor Volumes (mm^3) Day 1 ([3]; 10 mg base/kg PO QDx21): 87.1 mm^3
mean body weight losses [4]: ≤ 3%
tolerability [5]: acceptably tolerated
tolerability [6]: acceptably tolerated
ST18 and FREM2 gene expression changes (upregulated) [7]: at least 2 fold
ST18 and FREM2 gene expression changes (upregulated) [8]: at least 2 fold
change in ST18 and FREM2 gene expression [9]: ≥ 2 fold
change in ST18 and FREM2 gene expression [10]: ≥ 2 fold
LNCaP cell proliferation (LNCaP cells): significantly inhibits LNCaP cell proliferation
maximum increase of QTcB interval versus time-matched vehicle ([11]; 10 mg base/kg IV): approximately 9%
maximum increase of QTcB interval versus time-matched vehicle ([11]; 15 mg base/kg IV): ~13%
maximum increase of QTcB interval versus time-matched vehicle ([11]; 20 mg base/kg IV): ~16%
maximum suppression of HR versus vehicle ([11]; 20 mg base/kg IV, 9 minutes into 10-minute infusion): 19%
effect on MAP or its components ([11]; 5 to 20 mg base/kg IV versus time-matched vehicle): No notable effect
animals with moribund euthanasia ([12]; 0.375 to 1.5 mg base/kg/dose QW, study Days 13 to 23): 11 animals
NOEL for CV and respiratory changes ([12]; QW): 0.75 mg base/kg/dose
systemic clearance [13]: high
permeability [14]: 16.5 ×10⁻⁶ cm/s
metabolic stability [15]: greater in rat and dog followed by human and monkeys while being least stable in mouse hepatocytes
enzyme responsible for oxidative metabolism [16]: CYP3A4 appears to be predominantly responsible
dose excreted intact (urine plus bile) [17]: 26.3 % of the dose
dose excreted intact in urine [17]: 8.5 % of dose
direct inhibitory effect on CYP2C9 (CYP2C9): little to no direct inhibitory effect
direct inhibitory effect on CYP2D6 (CYP2D6): little to no direct inhibitory effect
predicted clearance [18]: 9.4 mL/min/kg
increase in platelets on Day 8 ([19]; 10 mg/kg/day 5 days on/2 days off, after 2-day dosing holiday): > 2 fold
reduction in neutrophil counts versus concurrent controls ([19]; females): 66%
reduction in neutrophil counts versus concurrent controls ([19]; males): 83%
greatest reduction in neutrophil counts versus concurrent controls and pre-study values ([19]; 5 days on/2 days off schedule): approximately 90%
SS (number of study survivors) ([20]; Compound A at 5 mg/kg/day PO): 7
MTV of study survivors on Day 133 ([20]; Compound A monotherapy 5 mg/kg PO daily): 1064 mm3
study survivors on Day 133 ([20]; Compound A monotherapy 5 mg/kg PO daily, n=8): seven
body weight loss of female sacrificed moribund [21]: 10.8%
NOAEL [22]: 5 mg base/kg/dose
STD10 [22]: > 45 mg base/kg/dose

COc1cc([C@@H]2c3cc4c(cc3[C@@H](O[C@@H]3O[C@@H]5CO[C@@H](C)O[C@H]5[C@H](O)[C@H]3O)[C@H]3COC(=O)[C@H]23)OCO4)cc(OC)c1O [Etoposide, etoposide]
median TTE ([20]; Etoposide at 24 mg/kg/day SC days 1-3 + Vehicle PO days 4-133): 63 days
SS (number of study survivors) ([20]; Etoposide at 24 mg/kg/day SC days 1-3 + Vehicle): 0
% TGD (NCI-H1417 SCLC xenograft [23]): 92%
TGD (NCI-H1417 SCLC xenograft [23]): 24 days
median TTE (NCI-H1417 SCLC xenograft [23]): 50 days

Reference: patent publication US10548896B2, “Treatment of relapsed and/or refractory solid tumors and non-Hodgkin's lymphomas” (CELGENE QUANTICEL RESEARCH, INC., priority 2016, dated 2020)
